The source of these data is ChEMBL document CHEMBL5291721, “A preclinical secondary pharmacology resource illuminates target-adverse drug reaction associations of marketed drugs” (Nat Commun, 2023).

Experiment [1] deals with T1, Alpha-1A adrenergic receptor (Homo sapiens, UniProt P35348).
T1 sequence (P35348 whole entry): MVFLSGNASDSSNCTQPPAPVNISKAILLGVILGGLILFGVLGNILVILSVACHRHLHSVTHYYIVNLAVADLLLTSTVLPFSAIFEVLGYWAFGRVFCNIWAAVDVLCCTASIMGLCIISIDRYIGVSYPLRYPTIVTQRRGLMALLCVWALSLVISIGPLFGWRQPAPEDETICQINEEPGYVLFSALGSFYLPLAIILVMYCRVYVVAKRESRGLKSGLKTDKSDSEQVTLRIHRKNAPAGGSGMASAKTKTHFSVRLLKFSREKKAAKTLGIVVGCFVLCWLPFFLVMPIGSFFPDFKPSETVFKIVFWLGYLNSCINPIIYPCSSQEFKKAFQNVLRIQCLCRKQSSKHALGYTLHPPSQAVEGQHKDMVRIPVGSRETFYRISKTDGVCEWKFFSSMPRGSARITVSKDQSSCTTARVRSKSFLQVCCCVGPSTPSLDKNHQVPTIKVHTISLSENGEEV
The experiment is classed as functional, cell-based.

In experiment [2] the target is T2, Alpha-2A adrenergic receptor (Homo sapiens, UniProt P08913).
T2 sequence (P08913 whole entry): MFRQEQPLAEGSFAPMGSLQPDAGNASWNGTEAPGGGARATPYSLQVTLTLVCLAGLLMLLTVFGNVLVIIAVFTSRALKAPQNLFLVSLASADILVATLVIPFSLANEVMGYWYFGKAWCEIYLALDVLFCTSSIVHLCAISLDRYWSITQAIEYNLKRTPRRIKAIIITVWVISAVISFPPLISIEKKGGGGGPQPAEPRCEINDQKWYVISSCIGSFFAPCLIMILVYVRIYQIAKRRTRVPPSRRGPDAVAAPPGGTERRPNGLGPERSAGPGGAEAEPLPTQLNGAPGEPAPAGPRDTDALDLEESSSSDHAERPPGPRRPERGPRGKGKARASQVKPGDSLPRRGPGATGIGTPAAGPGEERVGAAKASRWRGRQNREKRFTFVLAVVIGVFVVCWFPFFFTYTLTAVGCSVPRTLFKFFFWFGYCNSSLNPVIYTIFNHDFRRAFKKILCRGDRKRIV

In experiment [3] the target is Sodium-dependent dopamine transporter (Homo sapiens, UniProt Q01959).
In experiment [4] the target is T3, Estrogen receptor (Homo sapiens, UniProt P03372).
T3 sequence (P03372 whole entry): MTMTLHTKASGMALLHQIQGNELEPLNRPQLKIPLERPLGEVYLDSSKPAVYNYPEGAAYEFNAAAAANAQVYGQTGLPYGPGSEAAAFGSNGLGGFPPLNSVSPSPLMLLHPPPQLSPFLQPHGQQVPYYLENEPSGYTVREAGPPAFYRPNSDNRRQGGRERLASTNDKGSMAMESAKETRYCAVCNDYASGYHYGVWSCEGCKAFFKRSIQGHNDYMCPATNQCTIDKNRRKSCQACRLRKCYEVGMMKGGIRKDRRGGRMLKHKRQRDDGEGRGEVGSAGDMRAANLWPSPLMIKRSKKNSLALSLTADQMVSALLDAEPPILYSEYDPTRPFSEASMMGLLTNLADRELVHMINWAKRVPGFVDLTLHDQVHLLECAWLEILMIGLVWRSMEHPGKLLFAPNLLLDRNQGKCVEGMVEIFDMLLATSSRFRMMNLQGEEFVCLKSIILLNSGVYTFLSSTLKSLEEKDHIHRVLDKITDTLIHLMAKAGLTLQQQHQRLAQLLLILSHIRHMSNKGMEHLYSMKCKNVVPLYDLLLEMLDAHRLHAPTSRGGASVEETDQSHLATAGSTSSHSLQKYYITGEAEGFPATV

Experiment [5] concerns the target T4, Neuropeptide Y receptor type 1 (Homo sapiens, UniProt P25929).
T4 sequence (P25929 whole entry): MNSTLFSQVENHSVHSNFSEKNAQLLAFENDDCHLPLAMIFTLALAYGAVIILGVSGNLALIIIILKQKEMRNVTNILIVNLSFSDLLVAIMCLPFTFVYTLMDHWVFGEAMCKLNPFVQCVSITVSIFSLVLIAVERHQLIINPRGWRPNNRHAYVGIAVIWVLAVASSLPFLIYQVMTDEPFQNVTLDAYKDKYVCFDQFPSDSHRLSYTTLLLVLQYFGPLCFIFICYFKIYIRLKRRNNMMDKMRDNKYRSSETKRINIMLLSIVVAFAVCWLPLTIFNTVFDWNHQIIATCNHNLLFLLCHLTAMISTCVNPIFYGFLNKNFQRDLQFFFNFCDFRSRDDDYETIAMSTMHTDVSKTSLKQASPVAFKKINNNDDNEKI

For experiment [6], the target named is Kappa-type opioid receptor (Homo sapiens, UniProt P41145).
The target in experiment [7] is T5, Alpha-2B adrenergic receptor (Homo sapiens, UniProt P18089).
T5 sequence (P18089 whole entry): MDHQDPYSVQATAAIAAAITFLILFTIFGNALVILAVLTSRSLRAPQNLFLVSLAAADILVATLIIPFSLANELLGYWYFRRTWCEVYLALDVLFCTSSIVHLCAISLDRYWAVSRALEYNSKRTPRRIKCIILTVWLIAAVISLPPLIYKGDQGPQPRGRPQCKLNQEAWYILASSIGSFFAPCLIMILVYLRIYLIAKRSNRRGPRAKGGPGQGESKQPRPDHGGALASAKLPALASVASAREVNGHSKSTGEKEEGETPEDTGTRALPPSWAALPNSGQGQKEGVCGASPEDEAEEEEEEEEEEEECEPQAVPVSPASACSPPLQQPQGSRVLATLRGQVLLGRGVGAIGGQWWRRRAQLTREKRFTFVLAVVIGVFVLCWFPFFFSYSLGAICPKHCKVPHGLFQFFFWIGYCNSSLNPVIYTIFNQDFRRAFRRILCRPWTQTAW
Further: assay procedure not described here.

Chain of Sodium-dependent dopamine transporter (Q01959 whole entry): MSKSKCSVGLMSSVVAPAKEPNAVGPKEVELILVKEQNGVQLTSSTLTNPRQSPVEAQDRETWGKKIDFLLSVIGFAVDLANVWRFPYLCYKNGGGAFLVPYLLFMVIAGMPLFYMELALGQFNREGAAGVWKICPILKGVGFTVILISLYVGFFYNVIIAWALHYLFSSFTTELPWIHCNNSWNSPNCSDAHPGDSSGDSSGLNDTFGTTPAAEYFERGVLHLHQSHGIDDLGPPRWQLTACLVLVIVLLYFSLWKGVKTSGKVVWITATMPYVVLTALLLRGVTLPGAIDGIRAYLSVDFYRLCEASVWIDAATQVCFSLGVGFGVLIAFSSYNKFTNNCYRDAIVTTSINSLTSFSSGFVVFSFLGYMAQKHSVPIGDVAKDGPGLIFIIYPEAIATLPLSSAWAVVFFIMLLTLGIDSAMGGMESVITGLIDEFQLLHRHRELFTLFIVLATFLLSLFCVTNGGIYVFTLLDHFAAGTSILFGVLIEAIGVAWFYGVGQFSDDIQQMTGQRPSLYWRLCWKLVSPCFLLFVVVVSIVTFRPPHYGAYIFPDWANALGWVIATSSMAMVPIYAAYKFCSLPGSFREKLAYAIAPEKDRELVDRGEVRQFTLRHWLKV
Chain of Kappa-type opioid receptor (P41145 whole entry): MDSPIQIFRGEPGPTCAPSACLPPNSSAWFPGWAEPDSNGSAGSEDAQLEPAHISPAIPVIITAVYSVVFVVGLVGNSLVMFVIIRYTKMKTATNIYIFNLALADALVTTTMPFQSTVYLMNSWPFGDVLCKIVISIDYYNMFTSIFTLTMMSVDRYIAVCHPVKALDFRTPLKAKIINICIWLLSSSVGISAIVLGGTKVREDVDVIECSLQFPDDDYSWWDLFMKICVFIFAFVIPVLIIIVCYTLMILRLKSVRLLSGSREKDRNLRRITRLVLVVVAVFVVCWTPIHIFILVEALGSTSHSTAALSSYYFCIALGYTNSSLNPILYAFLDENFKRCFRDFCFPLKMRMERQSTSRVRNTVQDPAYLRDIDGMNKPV

As to `O=C1c2ccccc2C(=O)C1C(=O)C(c1ccccc1)c1ccccc1` [DIPHENADIONE], the results for the AC50 in experiment [1], in experiment [2] and in experiment [3] were more than 3 µM, more than 30 µM and more than 30 µM, respectively.
As for `O=C1c2c(O)c(=O)ccn2N([C@@H]2c3ccccc3SCc3c2ccc(F)c3F)[C@@H]2COCCN12` [BALOXAVIR], the AC50 in experiment [1], in experiment [2] and in experiment [3] was more than 30 µM throughout.
As for `CS(=O)(=O)c1ccc([C@@H](O)[C@@H](CO)NC(=O)C(Cl)Cl)cc1` [THIAMPHENICOL], the AC50 in experiment [1], in experiment [2], in experiment [3], in experiment [4], in experiment [5] and in experiment [6] was more than 30 µM in each case.
For `CCc1ccc(CCOc2ccc(CC3SC(=O)NC3=O)cc2)nc1` (configuration not stated) [PIOGLITAZONE], the AC50 in experiment [1] was more than 10 µM; in experiment [2], more than 30 µM; in experiment [3] it was more than 30 µM; in experiment [4] it was more than 30 µM; in experiment [5] it was more than 30 µM; in experiment [6], more than 10 µM.
For the compound `COc1cc(Nc2c(C#N)cnc3cc(OCCCN4CCN(C)CC4)c(OC)cc23)c(Cl)cc1Cl` [BOSUTINIB], the AC50 in experiment [2] was 7.58 µM; in experiment [3], 7.55 µM; in experiment [4] it was more than 30 µM; in experiment [5] it was more than 30 µM; in experiment [7], more than 10 µM; in experiment [6], 10 µM.
In the case of `Cc1ccc(O)c2ncccc12` [TILIQUINOL], the AC50 in experiment [1], in experiment [2] and in experiment [3] was more than 30 µM in each case.
Consider `C#C[C@]1(O)CC[C@H]2[C@@H]3CCc4cc(O)ccc4[C@H]3CC[C@@]21C` [ETHINYL ESTRADIOL], for which the AC50 in experiment [1] is more than 10 µM; in experiment [2], more than 30 µM; in experiment [3], 0.8 µM; in experiment [5] it was more than 30 µM; in experiment [6], more than 10 µM.
For `COC(=O)N[C@H](C(=O)N1CCC[C@H]1c1nc(-c2ccc(-c3ccc(-c4c[nH]c([C@@H]5CCCN5C(=O)[C@@H](NC(=O)OC)C(C)C)n4)cc3)cc2)c[nH]1)C(C)C`, the AC50 in experiment [4] was more than 30 µM; in experiment [5], more than 30 µM; in experiment [7], more than 30 µM; in experiment [6] it was 4.1 µM.
With `C(=N\NC1=NCCN1)/c1c2ccccc2c(/C=N/NC2=NCCN2)c2ccccc12` [BISANTRENE], the AC50 in experiment [1] came out at 1.47 µM; in experiment [2], 11.6 µM; in experiment [3] it was 9.57 µM.
In the case of `COC(=O)N[C@H](C(=O)N[C@@H](Cc1ccccc1)[C@@H](O)CN(Cc1ccc(-c2ccccn2)cc1)NC(=O)[C@@H](NC(=O)OC)C(C)(C)C)C(C)(C)C` [ATAZANAVIR], the AC50 in experiment [4] was more than 30 µM; in experiment [5], more than 30 µM; in experiment [7], more than 10 µM; in experiment [6], 1.06 µM.
As to `CN1CCCC(CN2c3ccccc3Sc3ccccc32)C1` (configuration not stated) [MEPAZINE], the results for the AC50 in experiment [1], in experiment [2] and in experiment [3] were 0.391 µM, 8.25 µM and 27.7 µM, respectively.
In the case of `O=C(CCCCCCC(=O)Nc1ccccc1)NO` [VORINOSTAT], the AC50 in experiment [4], in experiment [5], in experiment [7] and in experiment [6] was more than 30 µM each time.
In the case of `CC(=O)OC[C@H]1O[C@@H](n2ccc(=O)[nH]c2=O)[C@H](OC(C)=O)[C@@H]1OC(C)=O` [URIDINE TRIACETATE], the AC50 in experiment [1], in experiment [2] and in experiment [3] was more than 30 µM in each case.
As to `C[C@H]1O[C@H](O[C@H]2[C@H](O)[C@@H](O)[C@@H](O[C@H]3[C@H](O)[C@@H](O)C(O)O[C@@H]3CO)O[C@@H]2CO)[C@H](O)[C@@H](O)[C@@H]1N[C@H]1C=C(CO)[C@@H](O)[C@H](O)[C@H]1O` (some centres not stated) [ACARBOSE], the AC50 was more than 30 µM in experiment [1]; more than 30 µM in experiment [2]; more than 30 µM in experiment [3]; more than 30 µM in experiment [5]; more than 10 µM in experiment [6].
Take `COc1ccc2c(c1)C(=O)N(CCc1ccc(S(=O)(=O)NC(=O)NC3CCCCC3)cc1)C(=O)C2(C)C` [GLIQUIDONE]: the AC50 in experiment [4], in experiment [5], in experiment [7] and in experiment [6] was more than 30 µM in each case.
